From patent publication US20080275083A1, “2,3,4,9-TETRAHYDRO-1H-CARBAZOLES” (priority 2007, published 2008)

target: T1, human FSH receptor (Homo sapiens, UniProt P23945); assay: HTRF assay for measuring cAMP in cells (FSH-antagonistic effect); assay type: cell-based; conditions: hFSHR clone 16 cells (CHO cells stably transfected with the human FSH receptor), in the presence of 1e-9 mol/l hFSH
T1 construct: expressed in transfected cells; host or cells: CHO cells (hFSHR clone 16)
T1 sequence (P23945 18-695): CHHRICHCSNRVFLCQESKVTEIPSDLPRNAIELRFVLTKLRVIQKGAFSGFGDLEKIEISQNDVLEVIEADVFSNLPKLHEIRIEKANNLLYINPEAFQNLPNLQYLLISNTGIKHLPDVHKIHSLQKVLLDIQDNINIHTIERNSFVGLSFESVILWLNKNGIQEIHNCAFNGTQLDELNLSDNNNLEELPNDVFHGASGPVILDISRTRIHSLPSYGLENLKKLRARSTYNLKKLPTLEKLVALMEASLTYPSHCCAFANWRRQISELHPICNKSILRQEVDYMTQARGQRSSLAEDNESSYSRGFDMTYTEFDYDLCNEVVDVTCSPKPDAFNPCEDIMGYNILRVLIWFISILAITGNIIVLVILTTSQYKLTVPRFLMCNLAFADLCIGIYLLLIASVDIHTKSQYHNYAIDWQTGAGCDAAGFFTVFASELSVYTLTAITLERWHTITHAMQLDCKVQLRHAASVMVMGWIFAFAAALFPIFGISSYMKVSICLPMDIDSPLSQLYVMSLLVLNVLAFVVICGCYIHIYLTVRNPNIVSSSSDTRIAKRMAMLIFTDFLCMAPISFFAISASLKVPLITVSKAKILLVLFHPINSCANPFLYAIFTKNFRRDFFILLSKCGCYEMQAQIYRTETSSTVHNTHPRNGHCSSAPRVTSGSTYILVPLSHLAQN
Description: HTRF Assay for Measuring cAMP in Cells
The method is based on a competitive immunoassay between native cAMP, which has been produced by the cells, and cAMP which is labelled with XL665. The tracer binding was visualized by a monoclonal antibody, anti-cAMP labelled with cryptate [HTRF=homogeneous time-resolved fluorescence].
The specific signal is inversely proportional to the cAMP concentration of the samples employed.
The 665 nm/620 nm fluorescence ratio was evaluated.
The following material was used: 96-well plates for the tissue culture, 96-well plates with black edge and black base (e.g. Fluotrac 600 from Greiner), 96-well plates for the substance dilutions of polypropylene and cAMP Femtomolar (4000 wells Kit, CIS Bio International #62AM1PEC).
The following reagents were used: BSA (bovine serum albumin) Fraction V protease-free, IBMX (3-isobutyl-1-methylxanthine), hFSH (human follicle stimulating hormone), Triton X-100 analytical grade, potassium fluoride analytical grade, G 418 (Geneticin) and Accutase.
Buffer 1 (washing and testing buffer) contained PBS, 1 mM CaCl2, 1 mM MgCl2, 0.2% glucose; 0.1% BSA, 1 mM IBMX. Buffer 2 (2× lysis buffer) contained 1% Triton X-100 in PBS (without CaCl2 and MgCl2). Buffer 3 (assay buffer) contained 50 mM potassium phosphate buffer (pH 7.0); 800 mM potassium fluoride; 0.2% BSA (always added fresh).
On day 1, the cells were seeded in 96-well plates (3×10^4 cells per well hFSHR clone 16 cells (CHO cells stably transfected with the human FSH receptor in 150 μl of medium). The next day, test substance dilutions were made up. For this purpose, all the substances were diluted in ice-cold buffer 1 (with or without hFSH), and the substance dilutions were placed on ice until applied to the cells.
The cell supernatant was then aspirated off, and the cells were washed 2× with 200 μl of buffer 1. The cells were treated with 60 μl of the appropriate substance concentrations at 37° C. for 2 h. The cells were then lysed with 60 μl of buffer 2 (put onto the supernatant) (on a plate shaker at RT for 30 min).
The test conjugates (XL-665 and anti-cAMP cryptate) were diluted in buffer 3 in accordance with the manufacturers' information. The actual mixture for measurement was pipetted into a black 96-well plate (in each case 15 μl of the cell lysate diluted with 35 μl of buffer 1; firstly 25 μl of XL-665 conjugate were pipetted and, after 10 min, 25 μl of the anti-cAMP cryptate were added). This is followed by incubation at RT for 90 minutes. The measurement was carried out in a PheraStar (BMG).
Dose-effect curve (hFSH) for the human receptor: 1e-8, 3e-9, 1e-9, 3e-10, 1e-10, 3e-11, 1e-11, 3e-12 mol/l.
The test substances were employed in suitable dilutions in the absence (test for agonism) and in the presence of 1e-9 mol/l hFSH.
The values of the well ratio were averaged and then entered directly in SigmaPlot versus the concentrations. The maximum and minimum values were determined for each plate, and half the difference is to be regarded as IC50.

**Q.** How did the IC50 turn out when `COc1ccc2nc(-c3ccccc3)cc(C(=O)NC3(CO)CCc4[nH]c5ccccc5c4C3)c2c1` (stereo not drawn) [Example 4, 6-Methoxy-2-phenyl-quinoline-4-carboxylic acid (3-hydroxymethyl-2,3,4,9-tetrahydro-1H-carbazol-3-yl)-amide] was run?
**A.** 2 µM

**Q.** For `COc1ccc(-c2ccc(OC(C)C)c(C(=O)NC3(CO)CCc4[nH]c5ccc(F)cc5c4C3)c2)cc1OC` (stereo not drawn) [Example 18, 4-Isopropoxy-3′,4′-dimethoxy-biphenyl-3-carboxylic acid (6-fluoro-3-hydroxymethyl-2,3,4,9-tetrahydro-1H-carbazol-3-yl)-amide], which IC50 is on record?
**A.** 0.2 µM

**Q.** `CC(C)Oc1ccc(-c2cc3ccccc3o2)cc1C(=O)NC1(CO)CCc2[nH]c3ccccc3c2C1` (stereo not drawn) [Example 38, 5-Benzofuran-2-yl-N-(3-hydroxymethyl-2,3,4,9-tetrahydro-1H-carbazol-3-yl)-2-isopropoxy-benzamide] was tested. Which IC50 did it give?
**A.** 0.6 µM

**Q.** Which IC50 does the source give for `CC(C)Oc1ccc(-c2cc3ccccc3o2)cc1C(=O)NC1(CO)CCc2[nH]c3ccc(C(=O)O)cc3c2C1` (stereo not drawn) [Example 39, 6-(5-Benzofuran-2-yl-2-isopropoxy-benzoylamino)-6-hydroxymethyl-6,7,8,9-tetrahydro-5H-carbazole-3-carboxylic acid] here?
**A.** 6 µM

**Q.** For `CC(C)Oc1ccc(-c2cc3ccccc3o2)cc1C(=O)NC1(CO)CCc2[nH]c3ccc(F)cc3c2C1` (stereo not drawn) [Example 42, 5-Benzofuran-2-yl-N-(6-fluoro-3-hydroxymethyl-2,3,4,9-tetrahydro-1H-carbazol-3-yl)-2-isopropoxy-benzamide], which IC50 is on record?
**A.** 0.35 µM

**Q.** For `Cc1cccc2c3c([nH]c12)CCC(CO)(NC(=O)c1cc(-c2cc4ccccc4o2)ccc1OC(C)C)C3` (stereo not drawn) [Example 46, 5-Benzofuran-2-yl-N-(3-hydroxymethyl-8-methyl-2,3,4,9-tetrahydro-1H-carbazol-3-yl)-2-isopropoxy-benzamide], which IC50 is on record?
**A.** 2.5 µM
